Data from patent publication US10189862B2, “Phenothiazine-pyridine compounds and uses thereof” (The Chinese University of Hong Kong, priority 2016, dated 2019).

Experiments:
[1] = UV-Visible and fluorescence spectrometry; format: physicochemical; conditions: for λmax(nm)in EtOH: UV-Vis absorption maximum in EtOH; for Log ε: UV-Vis in EtOH; for λEm (nm): fluorescence emission, excited at 610 nm
Protocol: (§1) All of the new prepared phenothiazine-pyridine compounds are deep blue solid, the basic physiochemical properties are measured by UV-Visible and fluorescence spectrometry. […] The maximum absorption is about 650 nm in ethanol, and they are varied based on the compound structure. The fluorescence emission is about 680 nm when excited at 610 nm. All of these compounds have relatively high quantum yield, they are promising diagnostic and imaging agents. The lipophilicity is determined by the partition coefficient (log P), which can be obtained by measuring the UV-Vis absorption of the compound in phosphate buffer saline (PBS) before and after the partition equilibrium between n-octanol and PBS solution, and then calculated following the equation of: Log p=Log [(Abefore/Aafter)−1]. Wherein Abefore and Aafter are the absorption values in PBS solution before and after partition.

[2] = Partition coefficient (log P) between n-octanol and PBS by UV-Vis absorption; format: physicochemical
Protocol: as §1

[3] = test system: normal fibroblast WI38 cells; test: Dark toxicity, MTT assay; format: cell-based; conditions: Homo sapiens, WI-38, 24 h, read-out: IC50 dark toxicity
Protocol: (§2) Cell lines and culture conditions: A549, HT29, MCF-7, MDA-MB-231 cell lines were maintained in RPMI1640 supplemented with fetal bovine serum (10%) and penicillin-streptomycin solution (1%), and WI38 cells were maintained in DMEM supplemented with fetal bovine serum (10%) and penicillin-streptomycin solution (1%). Approximately 1×10^4 (for A549, HT29, MCF-7, MDA-MB-231) or 1.5×10^4 (for WI38) cells per well were seeded in 96-well plate and incubated overnight light at 37° C. in a humidified atmosphere with 5% CO2.
(§3) Dark toxicity: Cells were incubated with different concentrations of photosensitive drug for 24 h in dark, and the cell viabilities were determined by MTT assay
The IC50 values (50% inhibitory concentration) of the prepared phenothiazine-pyridine compounds 8, 14, 15, 16, 17, 18, 19, 20, 21, 22, 23, and 24 to normal fibroblast cell line WI38 were measured by MTT assay.

A549 cell line [4] = test: Photocytotoxicity (PDT), MTT assay; format: cell-based; conditions: Homo sapiens, A549, light or radiation study, read-out: IC50 PDT
Protocol: as §2
(§4) Photocytotoxicity: Cells were incubated with different concentrations of photosensitive drug for 1 h in the dark, then the medium in the well was sucked by a syringe, and washed by PBS. Then a solution of new medium was added, and illuminated by light. After irradiation, the cells were incubated under dark at 37° C. for another 24 h, and the cell viabilities were determined by MTT assay.

HT29 cell line [5] = test: Photocytotoxicity (PDT), MTT assay; format: cell-based; conditions: Homo sapiens, HT-29, light or radiation study, read-out: IC50 PDT
Protocol: as §2, §4

MCF7 cell line [6] = test: Photocytotoxicity (PDT), MTT assay; format: cell-based; conditions: Homo sapiens, MCF7, light or radiation study, read-out: IC50 PDT
Protocol: as §2, §4

A549 cell line [7] = test: Dark toxicity, MTT assay; format: cell-based; conditions: Homo sapiens, A549, 24 h, read-out: IC50 DK
Protocol: as §2, §3

HT29 cell line [8] = test: Dark toxicity, MTT assay; format: cell-based; conditions: Homo sapiens, HT-29, 24 h, read-out: IC50 DK
Protocol: as §2, §3

MCF7 cell line [9] = test: Dark toxicity, MTT assay; format: cell-based; conditions: Homo sapiens, MCF7, 24 h, read-out: IC50 DK
Protocol: as §2, §3

S. aureus = test: Dark toxicity of photosensitizers on bacteria, CFU count; format: cell-based, Staphylococcus aureus; conditions: absence of light, 6 h
Protocol: (§5) Bacterial growth and culture: Gram-positive S. aureus or Gram-negative E. coli were grown on trypticase soy agar (TSA) for 24 h, then a colony was transferred into tryptica soy broth (TSB) and grown at 37° C. overnight at a 200 rpm speeds of shaking-up using a shaker incubator. The nutrient medium was centrifuged for 5 min at 8000 rpm and diluted by sterile 0.85% saline (pH 7.5) to concentrations of 10^8 CFU/ml, which was used for further incubation with photosensitizers in the following experiments.
(§6) Dark toxicities of the photosensitizers on bacteria: Bacterial suspensions were incubated with photosensitizers at various concentrations at 37° C. in the dark for 6 h. After that, 100 uL of cell suspension were spread on the TSA in 10-fold serial dilutions. Colony forming unit (CFU) was counted after incubation for 24 h at 37° C.

E. coli = test: as above; format: cell-based, Escherichia coli; conditions: absence of light, 6 h
Protocol: as §5, §6

SMILES	λmax(nm)in EtOH [1]	Log ε [1]	λEm (nm) [1]	logP [2]	IC50 [3]	IC50 (A549 cell line [4])	IC50 (HT29 cell line [5])	IC50 (MCF7 cell line [6])	IC50 (A549 cell line [7])	IC50 (HT29 cell line [8])	IC50 (MCF7 cell line [9])	dark toxicity (S. aureus)	dark toxicity (E. coli)
CCCN(CCC)c1cc2[s+]c3cc(N(CC)CC)ccc3nc2c2ccc(C)nc12 [Compound 19, 9-(diethylamino)-5-(dipropylamino)-3-methylpyrido[3,2-a]phenothiazin-7-ium chloride]	675 nm	4.67	684 nm	1.42	9.4 µM								
CCCCCN(CCCCC)c1cc2[s+]c3cc(N(CC)CC)ccc3nc2c2ccc(C)nc12 [Compound 20, 9-(diethylamino)-5-(dipentylamino)-3-methylpyrido[3,2-a]phenothiazin-7-ium chloride]	676 nm	4.89	700 nm	1.48	> 10 µM								
CCN(CC)c1ccc2nc3c(cc(NCCCN)c4nc(C)ccc43)[s+]c2c1 [Compound 21, 5-(3-aminopropylamino)-9-(diethylamino)-3-methylpyrido[3,2-a]phenothiazin-7-ium chloride]	668 nm	4.82	686 nm	0.64	> 10 µM								
CCN(CC)c1ccc2nc3c(cc(NCCCNC)c4nc(C)ccc43)[s+]c2c1 [Compound 22, 9-(diethylamino)-3-methyl-5-(3-(methylamino)propylamino) pyrido[3,2-a]phenothiazin-7-ium chloride]	658 nm	4.81	686 nm	0.65	> 10 µM	11.9 µM	0.51 µM	3.1 µM	19.8 µM	9.5 µM	13.2 µM		
CCCNc1c(I)c2[s+]c3cc(N(CC)CC)ccc3nc2c2ccc(C)nc12 [Compound 23, 9-(diethylamino)-6-iodo-3-methyl-5-(propylamino)pyrido[3,2-a]phenothiazin-7-ium chloride]	633 nm	4.87	666 nm	1.48	5.2 µM	0.68 µM	0.071 µM	0.12 µM	3.3 µM	2 µM	0.9 µM	essentially non-toxic	essentially non-toxic
CCCCN(CCCC)c1ccc2nc3c(cc(NCCC)c4nc(C)ccc43)[s+]c2c1 [Compound 24, 9-(dibutylamino)-3-methyl-5-(propylamino)pyrido[3,2-a]phenothiazin-7-ium chloride]	654 nm	4.86	688 nm	3.4	> 10 µM	0.1 µM	0.074 µM	0.077 µM	0.85 µM	0.84 µM	0.85 µM	essentially non-toxic	essentially non-toxic
